In assay [1] the test system is HCC-78 cell line harbouring SLC34A2-ROS1 fusion. Kind of assay: Antiproliferative MTT assay, HCC-78. Type of assay: cell-based, human. Particulars: read-out: Cellular IC50 (μM) HCC-78. A general note: Tetrazolium dyes change colour on reduction, which living cells bring about.
Assay [2] concerns NCI-H3122 cell line harbouring EML4-ALK fusion. Kind of assay: Antiproliferative MTT assay, NCI-H3122. Type of assay: cell-based, human. Conditions: read-out: Cellular IC50 (μM) NCI-H3122.
Assay [3] concerns the target ALK^WT (Homo sapiens, UniProt Q9UM73). Description: HTRF KinEASE-TK kinase inhibitory assay, ALK wild type. Conditions: for inhibition at 1 µM: read-out: ALK Inhibition (1μM); for ALK Inhibition (1μM): kinase inhibition % at 1 μM. Type of assay: biochemical. On the technique in general: TR-FRET usually uses a lanthanide donor and a delayed reading to cut background.
Assay [4] deals with c-MET (Homo sapiens, UniProt P08581). Kind of assay: HTRF kinase inhibitory assay, c-MET. Particulars: for inhibition at 1 µM: read-out: c-MET Inhibition (1μM); for c-MET Inhibition (1μM): kinase inhibition % at 1 μM. Type of assay: biochemical.
c-MET, sequence (P08581 25-1390): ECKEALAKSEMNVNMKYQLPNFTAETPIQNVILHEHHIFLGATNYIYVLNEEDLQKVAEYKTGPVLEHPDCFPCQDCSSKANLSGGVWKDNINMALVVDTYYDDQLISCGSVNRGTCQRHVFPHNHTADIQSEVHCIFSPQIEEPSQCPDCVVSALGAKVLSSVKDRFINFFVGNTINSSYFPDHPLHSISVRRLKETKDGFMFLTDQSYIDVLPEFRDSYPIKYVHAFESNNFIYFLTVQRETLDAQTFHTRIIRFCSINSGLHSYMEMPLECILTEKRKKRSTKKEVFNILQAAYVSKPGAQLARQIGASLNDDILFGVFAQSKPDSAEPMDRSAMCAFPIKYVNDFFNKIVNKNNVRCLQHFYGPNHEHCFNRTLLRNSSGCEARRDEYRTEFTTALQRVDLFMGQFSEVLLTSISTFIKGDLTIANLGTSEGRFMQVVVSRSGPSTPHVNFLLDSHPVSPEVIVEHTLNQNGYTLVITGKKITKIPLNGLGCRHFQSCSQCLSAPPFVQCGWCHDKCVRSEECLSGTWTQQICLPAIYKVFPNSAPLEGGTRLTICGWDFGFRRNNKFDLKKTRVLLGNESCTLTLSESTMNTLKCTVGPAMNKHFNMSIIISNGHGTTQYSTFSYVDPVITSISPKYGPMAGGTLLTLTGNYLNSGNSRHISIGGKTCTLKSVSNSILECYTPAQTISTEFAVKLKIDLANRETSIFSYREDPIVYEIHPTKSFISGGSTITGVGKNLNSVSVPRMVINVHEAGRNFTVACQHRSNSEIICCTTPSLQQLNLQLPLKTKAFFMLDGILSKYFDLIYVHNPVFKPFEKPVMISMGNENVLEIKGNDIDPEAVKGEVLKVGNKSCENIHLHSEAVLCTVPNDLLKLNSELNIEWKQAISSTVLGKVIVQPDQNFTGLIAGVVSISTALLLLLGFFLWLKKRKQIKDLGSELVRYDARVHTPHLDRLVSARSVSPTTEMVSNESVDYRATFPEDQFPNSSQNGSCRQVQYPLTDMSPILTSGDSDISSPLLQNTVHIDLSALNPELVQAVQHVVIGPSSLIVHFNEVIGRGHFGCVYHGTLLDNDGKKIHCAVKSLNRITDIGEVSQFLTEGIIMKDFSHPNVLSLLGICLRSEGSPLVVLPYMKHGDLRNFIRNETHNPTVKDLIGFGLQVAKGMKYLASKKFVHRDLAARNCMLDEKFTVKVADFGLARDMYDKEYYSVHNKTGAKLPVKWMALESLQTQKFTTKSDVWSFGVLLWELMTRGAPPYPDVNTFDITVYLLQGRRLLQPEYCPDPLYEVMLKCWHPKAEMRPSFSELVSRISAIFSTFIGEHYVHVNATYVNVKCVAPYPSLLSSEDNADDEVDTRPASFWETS
Assay [5] has as its target ROS1 (Homo sapiens, UniProt P08922). Description: HTRF KinEASE-TK kinase inhibitory assay, ROS1. Type of assay: biochemical. Particulars: for inhibition at 1 µM: read-out: ROS1 Inhibition (1μM); for ROS1 Inhibition (1μM): kinase inhibition % at 1 μM.
Setting [6] is: MTT, 72 h, mean of at least three independent experiments.
The mark [7] stands for this setting: read-out: ROS1 IC50, average of two independent experiments.
The mark [8] stands for this setting: average of two independent experiments.

Like-named read-outs stand apart in the source and are kept apart here.

ROS1, sequence (P08922 28-2347): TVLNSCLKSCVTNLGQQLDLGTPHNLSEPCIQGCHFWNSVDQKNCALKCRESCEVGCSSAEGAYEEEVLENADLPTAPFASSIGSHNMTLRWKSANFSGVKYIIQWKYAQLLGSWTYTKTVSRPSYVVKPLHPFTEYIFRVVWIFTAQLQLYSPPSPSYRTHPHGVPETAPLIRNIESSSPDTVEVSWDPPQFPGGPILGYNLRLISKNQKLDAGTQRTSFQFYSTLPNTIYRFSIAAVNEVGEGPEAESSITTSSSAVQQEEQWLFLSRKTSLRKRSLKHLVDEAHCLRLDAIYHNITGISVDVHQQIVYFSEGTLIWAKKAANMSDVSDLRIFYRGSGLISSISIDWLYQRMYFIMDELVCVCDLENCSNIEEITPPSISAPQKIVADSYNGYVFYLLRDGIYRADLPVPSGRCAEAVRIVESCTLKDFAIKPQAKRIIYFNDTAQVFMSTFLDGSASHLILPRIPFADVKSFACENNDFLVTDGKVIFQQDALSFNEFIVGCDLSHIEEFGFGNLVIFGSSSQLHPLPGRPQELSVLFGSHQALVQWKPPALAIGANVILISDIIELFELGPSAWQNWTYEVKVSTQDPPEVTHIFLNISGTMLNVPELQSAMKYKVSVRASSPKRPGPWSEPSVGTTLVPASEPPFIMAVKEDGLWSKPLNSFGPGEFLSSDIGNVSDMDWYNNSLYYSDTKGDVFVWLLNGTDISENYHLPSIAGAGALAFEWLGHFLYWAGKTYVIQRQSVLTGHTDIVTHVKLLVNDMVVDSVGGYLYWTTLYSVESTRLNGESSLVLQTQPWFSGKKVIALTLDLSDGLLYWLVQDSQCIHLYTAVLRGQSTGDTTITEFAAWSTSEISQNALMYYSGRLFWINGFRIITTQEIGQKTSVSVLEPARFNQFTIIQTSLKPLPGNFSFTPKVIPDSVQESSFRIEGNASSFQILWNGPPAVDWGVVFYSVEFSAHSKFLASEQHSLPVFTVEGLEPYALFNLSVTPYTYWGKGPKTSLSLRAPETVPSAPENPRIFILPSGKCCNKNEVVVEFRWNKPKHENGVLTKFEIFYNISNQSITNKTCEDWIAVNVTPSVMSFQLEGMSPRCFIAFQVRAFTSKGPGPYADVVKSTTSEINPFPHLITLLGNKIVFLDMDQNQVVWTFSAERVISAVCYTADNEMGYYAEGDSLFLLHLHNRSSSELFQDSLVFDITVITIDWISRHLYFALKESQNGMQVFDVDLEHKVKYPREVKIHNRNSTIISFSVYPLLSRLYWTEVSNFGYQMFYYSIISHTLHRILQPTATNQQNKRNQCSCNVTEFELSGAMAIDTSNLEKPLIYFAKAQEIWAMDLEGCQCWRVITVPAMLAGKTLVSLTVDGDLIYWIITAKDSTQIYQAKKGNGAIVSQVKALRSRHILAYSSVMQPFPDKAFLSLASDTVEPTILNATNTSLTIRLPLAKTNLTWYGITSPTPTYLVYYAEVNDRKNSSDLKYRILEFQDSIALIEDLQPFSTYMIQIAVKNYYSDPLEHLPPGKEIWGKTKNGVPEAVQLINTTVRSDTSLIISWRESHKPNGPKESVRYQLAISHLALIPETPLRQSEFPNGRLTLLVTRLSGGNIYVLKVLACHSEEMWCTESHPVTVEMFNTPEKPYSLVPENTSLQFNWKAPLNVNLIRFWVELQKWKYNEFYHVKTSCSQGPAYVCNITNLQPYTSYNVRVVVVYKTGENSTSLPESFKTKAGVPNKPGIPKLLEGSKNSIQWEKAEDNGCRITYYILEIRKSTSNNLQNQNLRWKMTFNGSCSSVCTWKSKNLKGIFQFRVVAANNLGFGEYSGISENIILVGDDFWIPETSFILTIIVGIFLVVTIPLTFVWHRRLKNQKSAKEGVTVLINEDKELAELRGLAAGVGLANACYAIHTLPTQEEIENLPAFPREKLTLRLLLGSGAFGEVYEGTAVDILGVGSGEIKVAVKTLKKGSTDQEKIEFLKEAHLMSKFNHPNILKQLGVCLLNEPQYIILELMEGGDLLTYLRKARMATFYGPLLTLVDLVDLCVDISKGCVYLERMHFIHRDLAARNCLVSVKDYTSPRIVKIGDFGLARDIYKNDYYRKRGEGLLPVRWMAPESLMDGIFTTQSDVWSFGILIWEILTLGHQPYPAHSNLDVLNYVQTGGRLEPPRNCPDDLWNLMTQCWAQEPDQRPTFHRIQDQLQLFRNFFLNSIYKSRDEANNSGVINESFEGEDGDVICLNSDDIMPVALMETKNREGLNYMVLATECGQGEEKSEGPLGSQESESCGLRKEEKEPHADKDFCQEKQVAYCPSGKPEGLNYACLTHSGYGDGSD

On to `CCCn1cc(-c2cnc(N)c(O[C@H](C)c3ccccc3-c3ccnn3C)c2)cn1` [B05, (R)-3–(1-(2–(1-methyl-1H-pyrazol-5-yl)phenyl)ethoxy)-5–(1-propyl-1H-pyrazol-4-yl)pyridin-2-amine], for which the half-maximal inhibitory concentration (IC50) in assay [1] (Homo sapiens, HCC78, 72 h) came to 21.3 ± 0.7 µM; in assay [2] (Homo sapiens, NCI-H3122, 72 h) it was 96.2 ± 6.9 µM; in assay [3], 1160 nM; in assay [5], 260 nM. Also, the figures for the inhibition at 1 µM in assay [3], in assay [4] and in assay [5] were 42%, 26% and 90%, respectively.

Turning to “(R)-5–(6-amino-5–(1-(4'-fluoro-[1,1'-biphenyl]-2-yl)ethoxy)pyridin-3-yl)-1'-methylspiro[indoline-3,4'-piperidin]-2-one [C06]”, the IC50 in assay [1] (setting [6]) was 3.1 ± 0.3 µM; in assay [2] (setting [6]), 1.4 ± 0.1 µM; in assay [3] (read-out: ALK IC50) it was 214 nM; in assay [5] (setting [7]), 31.2 nM. The “ALK Inhibition (1μM)” value in assay [3] (1 µM) was determined as 91%. Moreover, in assay [4] (1 µM), the “c-MET Inhibition (1μM)” value worked out at 58%. Further, the “ROS1 Inhibition (1μM)” value in assay [5] (average of two independent experiments, 1 µM) is given as 98%.

On to `CCn1cc(-c2cnc(N)c(O[C@H](C)c3ccccc3-c3ccccc3)c2)cn1` [B09, (R)-3–(1-([1,1'-biphenyl]-2-yl)ethoxy)-5–(1-ethyl-1H-pyrazol-4-yl)pyridin-2-amine], for which the concentration for half-maximal inhibition (IC50) in assay [1] (Homo sapiens, HCC78, 72 h) amounted to 11.4 ± 0.5 µM; in assay [2] (Homo sapiens, NCI-H3122, 72 h), 8.5 ± 1.2 µM; in assay [3] it was 75.9 nM. In addition, the inhibition at 1 µM in assay [3] amounted to 92%; in assay [4], 50%; in assay [5] it was 99%.

For `C[C@@H](Oc1cc(-c2cccn2C)cnc1N)c1ccccc1-c1ccccc1` [B06, (R)-3–(1-([1,1'-biphenyl]-2-yl)ethoxy)-5–(1-methyl-1H-pyrrol-2-yl)pyridin-2-amine], the half-maximal inhibitory concentration (IC50) in assay [1] (Homo sapiens, HCC78, 72 h) is 7.1 ± 0.7 µM; in assay [2] (Homo sapiens, NCI-H3122, 72 h), 24.8 ± 5 µM; in assay [5] it was 192 nM. Moreover, the inhibition at 1 µM was 44% in assay [3], 9% in assay [4] and 90% in assay [5].

Turning to `C[C@@H](Oc1cc(-c2ccnn2C)cnc1N)c1ccccc1-c1ccnn1C` [B02, (R)-5–(1-methyl-1H-pyrazol-5-yl)-3–(1-(2–(1-methyl-1H-pyrazol-5-yl)phenyl)ethoxy)pyridin-2-amine], the 50% inhibitory concentration (IC50) in assay [1] (Homo sapiens, HCC78, 72 h) came out at 64.8 ± 4.5 µM; in assay [2] (Homo sapiens, NCI-H3122, 72 h), 689 ± 57.2 µM; in assay [5], 216 nM. In addition, the inhibition at 1 µM in assay [3] was 30%; in assay [4], 6%; in assay [5] it was 86%.

`CCCn1cc(-c2cnc(N)c(O[C@H](C)c3ccccc3)c2)cn1` [A04, (R)-3–(1-phenylethoxy)-5–(1-propyl-1H-pyrazol-4-yl)pyridin-2-amine]: the concentration for half-maximal inhibition (IC50) is 1540 nM in assay [3] and 964 nM in assay [5]. The inhibition at 1 µM worked out at 37% in assay [3], 5% in assay [4] and 64% in assay [5]. Also, in assay [5] (963.9 nM vs. 99.5 nM), the “fold decrease in ROS1 potency compared to A02” value is around 10 fold.

Take “(R)-5–(6-amino-5–(1-(3'-methyl-[1,1'-biphenyl]-2-yl)ethoxy)pyridin-3-yl)-1'-methylspiro[indoline-3,4'-piperidin]-2-one [C05]”: the 50% inhibitory concentration (IC50) in assay [1] (setting [6]) amounted to 4.6 ± 0.1 µM; in assay [2] (setting [6]), 2.4 ± 0.1 µM; in assay [3] (read-out: ALK IC50), 79.7 nM; in assay [5] (setting [7]), 77.3 nM. Also, in assay [3], the “ALK Inhibition (1μM)” value stood at 101%. The “c-MET Inhibition (1μM)” value in assay [4] is on record as 59%. Further, in assay [5] (setting [8]), the “ROS1 Inhibition (1μM)” value is recorded as 100%.

Turning to `C[C@@H](Oc1cc(-c2ccnn2C)cnc1N)c1ccccc1` [A01, (R)-5–(1-methyl-1H-pyrazol-5-yl)-3–(1-phenylethoxy)pyridin-2-amine], the 50% inhibitory concentration (IC50) in assay [1] (Homo sapiens, HCC78, 72 h) is 28.7 ± 5.8 µM; in assay [2] (Homo sapiens, NCI-H3122, 72 h), 152 ± 44.4 µM; in assay [3], 407 nM; in assay [5] it was 173 nM. In addition, the inhibition at 1 µM amounted to 90% in assay [3], 5% in assay [4] and 101% in assay [5].

With `C[C@@H](Oc1cc(-c2cnn(C)c2)cnc1N)c1ccccc1-c1ccnn1C` [B03, (R)-5–(1-methyl-1H-pyrazol-4-yl)-3–(1-(2–(1-methyl-1H-pyrazol-5-yl)phenyl)ethoxy)pyridin-2-amine], the concentration for half-maximal inhibition (IC50) in assay [1] (Homo sapiens, HCC78, 72 h) amounted to 52.7 ± 15.2 µM; in assay [2] (Homo sapiens, NCI-H3122, 72 h), 207 ± 40.7 µM; in assay [3] it was 286 nM; in assay [5], 374 nM. In addition, the inhibition at 1 µM in assay [3] came out at 88%; in assay [4] it was 21%; in assay [5] it was 74%.

Take `C[C@@H](Oc1cc(-c2cccn2C)cnc1N)c1ccccc1F` [A05, (R)-3–(1-(2-fluorophenyl)ethoxy)-5–(1-methyl-1H-pyrrol-2-yl)pyridin-2-amine]: the concentration for half-maximal inhibition (IC50) turned out to be 278 ± 53.1 µM in assay [1] (Homo sapiens, HCC78, 72 h) and 168 ± 39.4 µM in assay [2] (Homo sapiens, NCI-H3122, 72 h). Also, the values for the inhibition at 1 µM in assay [3], in assay [4] and in assay [5] were 18%, -10% and 43%, respectively.

For the compound `C[C@@H](Oc1cc(-c2cccn2C)cnc1N)c1ccccc1-c1ccnn1C` [B01, (R)-3–(1-(2–(1-methyl-1H-pyrazol-5-yl)phenyl)ethoxy)-5–(1-methyl-1H-pyrrol-2-yl)pyridin-2-amine], the half-inhibitory concentration (IC50) was 33.9 ± 1.8 µM in assay [1] (Homo sapiens, HCC78, 72 h); 186 ± 8.6 µM in assay [2] (Homo sapiens, NCI-H3122, 72 h); 103 nM in assay [5]. Moreover, the inhibition at 1 µM was 30% in assay [3], 0% in assay [4] and 81% in assay [5].

Turning to `CCn1cc(-c2cnc(N)c(O[C@H](C)c3ccccc3F)c2)cn1` [A07, (R)-5–(1-ethyl-1H-pyrazol-4-yl)-3–(1-(2-fluorophenyl)ethoxy)pyridin-2-amine], the inhibition at 1 µM came out at 69% in assay [3], 18% in assay [4] and 87% in assay [5]. Further, the IC50 in assay [5] is 81.4 nM.

Consider `CCCn1cc(-c2cnc(N)c(O[C@H](C)c3ccccc3-c3ccccc3)c2)cn1` [B10, (R)-3–(1-([1,1'-biphenyl]-2-yl)ethoxy)-5–(1-propyl-1H-pyrazol-4-yl)pyridin-2-amine], for which the half-inhibitory concentration (IC50) in assay [1] (Homo sapiens, HCC78, 72 h) is 7.7 ± 1.2 µM; in assay [2] (Homo sapiens, NCI-H3122, 72 h) it was 13.9 ± 1.2 µM; in assay [5], 148 nM. For the same compound, the inhibition at 1 µM in assay [3] came out at 82%; in assay [4] it was 60%; in assay [5], 98%.

As to `CCCn1cc(-c2cnc(N)c(O[C@H](C)c3ccccc3F)c2)cn1` [A08, (R)-3–(1-(2-fluorophenyl)ethoxy)-5–(1-propyl-1H-pyrazol-4-yl)pyridin-2-amine], the IC50 in assay [1] (Homo sapiens, HCC78, 72 h) was 13.9 ± 6.3 µM; in assay [2] (Homo sapiens, NCI-H3122, 72 h), 36.8 ± 2.5 µM; in assay [5], 120 nM. In addition, the inhibition at 1 µM in assay [3] is 58%; in assay [4], 22%; in assay [5], 91%.

Turning to `C[C@@H](Oc1cc(-c2ccnn2C)cnc1N)c1ccccc1-c1ccccc1` [B07, (R)-3–(1-([1,1'-biphenyl]-2-yl)ethoxy)-5–(1-methyl-1H-pyrazol-5-yl)pyridin-2-amine], the IC50 in assay [1] (Homo sapiens, HCC78, 72 h) came out at 16.9 ± 1.4 µM; in assay [2] (Homo sapiens, NCI-H3122, 72 h), 14.3 ± 3.6 µM; in assay [3], 217 nM; in assay [5], 65.7 nM. Further, the inhibition at 1 µM is 99% in assay [3], 8% in assay [4] and 99% in assay [5].

As for `C[C@@H](Oc1cc(-c2cnn(C)c2)cnc1N)c1ccccc1` [A02, (R)-5–(1-methyl-1H-pyrazol-4-yl)-3–(1-phenylethoxy)pyridin-2-amine], the IC50 worked out at 36.4 ± 3.7 µM in assay [1] (Homo sapiens, HCC78, 72 h); 149 ± 18.5 µM in assay [2] (Homo sapiens, NCI-H3122, 72 h); 458 nM in assay [3]; 99.5 nM in assay [5]. Moreover, the inhibition at 1 µM in assay [3] came to 65%; in assay [4] it was 2%; in assay [5], 101%.

For the compound `CCn1cc(-c2cnc(N)c(O[C@H](C)c3ccccc3)c2)cn1` [A03, (R)-5–(1-ethyl-1H-pyrazol-4-yl)-3–(1-phenylethoxy)pyridin-2-amine], the IC50 amounted to 50.5 ± 14 µM in assay [1] (Homo sapiens, HCC78, 72 h); 101 ± 22.8 µM in assay [2] (Homo sapiens, NCI-H3122, 72 h); 454 nM in assay [3]; 317 nM in assay [5]. Besides, the inhibition at 1 µM in assay [3] turned out to be 65%; in assay [4] it was 14%; in assay [5] it was 85%.

Consider `CCn1cc(-c2cnc(N)c(O[C@H](C)c3ccccc3-c3ccnn3C)c2)cn1` [B04, (R)-5–(1-ethyl-1H-pyrazol-4-yl)-3–(1-(2–(1-methyl-1H-pyrazol-5-yl)phenyl)ethoxy)pyridin-2-amine], for which the 50% inhibitory concentration (IC50) in assay [1] (Homo sapiens, HCC78, 72 h) came to 28 ± 4.5 µM; in assay [2] (Homo sapiens, NCI-H3122, 72 h), 128 ± 25.5 µM; in assay [5], 80.5 nM. Besides, the figures for the inhibition at 1 µM in assay [3] and in assay [4] were 59% and 28%, respectively.

Take “(R)-5–(6-amino-5–(1-(4'-(trifluoromethoxy)-[1,1'-biphenyl]-2-yl)ethoxy)pyridin-3-yl)-1'-methylspiro[indoline-3,4'-piperidin]-2-one [C07]”: the 50% inhibitory concentration (IC50) in assay [1] (setting [6]) came to 4.2 ± 0.2 µM; in assay [2] (setting [6]), 2.4 ± 0.1 µM; in assay [3] (read-out: ALK IC50), 414 nM; in assay [5] (setting [7]) it was 73.6 nM. Also, the “ALK Inhibition (1μM)” value in assay [3] turned out to be 55%. Also, in assay [4], the “c-MET Inhibition (1μM)” value amounted to 18%. For the same compound, in assay [5] (setting [8]), the “ROS1 Inhibition (1μM)” value came out at 95%.

Take “(R)-5–(6-amino-5–(1-(4'-methyl-[1,1'-biphenyl]-2-yl)ethoxy)pyridin-3-yl)-1'-methylspiro[indoline-3,4'-piperidin]-2-one [C04]”: the 50% inhibitory concentration (IC50) in assay [2] (setting [6]) was found to be 2.4 ± 0.3 µM; in assay [3] (read-out: ALK IC50) it was 38.8 nM; in assay [5] (setting [7]) it was 16.5 nM. For the same compound, the “ALK Inhibition (1μM)” value in assay [3] came out at 100%. In assay [4], the “c-MET Inhibition (1μM)” value turned out to be 43%. Besides, the “ROS1 Inhibition (1μM)” value in assay [5] (setting [8]) is reported as 100%.

By IC50 is commonly meant the concentration that inhibits the measured activity by half. By inhibition is commonly meant the change of the read-out against control, counted positive when it falls.

The values are drawn from PMC10288926 (Journal of Enzyme Inhibition and Medicinal Chemistry, 2023).
